Reference: patent US6462047B1, “Carboline derivatives as cGMP phosphodiesterase inhibitors” (ICOS Corporation, priority 2001, dated 2002)

What was measured:
human recombinant PDE5 = human recombinant PDE5 (Homo sapiens, UniProt O76074); assay: Inhibitory effect on cGMP-PDE (one-step assay adapted from Wells et al.); format: biochemical; settings: human recombinant PDE5, 0.15 μM 8-[H3]-cGMP, 30 minutes incubation, 2% DMSO
Method: cGMP-PDE activity of compounds of the present invention was measured using a one-step assay adapted from Wells et al., Biochim. Biophys. Acta, 384, 430 (1975). The reaction medium contained 50 mM Tris-HCl, pH 7.5, 5 mM magnesium acetate, 250 μg/ml 5′-Nucleotidase, 1 mM EGTA, and 0.15 μM 8-[H^3]-cGMP. The enzyme used was a human recombinant PDE5 (ICOS Corp., Bothell, Wash.).
Compounds of the invention were dissolved in DMSO finally present at 2% in the assay.

[1] = test system: Rat aortic smooth muscle cells (RSMC); assay: cGMP level measurements in ANF-stimulated rat aortic smooth muscle cells; format: cell-based; settings: 30 minutes at 37° C. with compound, then ANF (100 nM) for 10 minutes, dose giving half of the stimulation at saturating concentrations
Method: Rat aortic smooth muscle cells (RSMC), prepared according to Chamley et al., Cell Tissue Res., 177, 503-522 (1977), were used between the 10th and 25th passage at confluence in 24-well culture dishes. Culture media was aspirated and replaced with PBS (0.5 ml) containing the compound tested at the appropriate concentration. After 30 minutes at 37° C., particulates guanylate cyclase was stimulated by addition of ANF (100 nM) for 10 minutes. At the end of incubation, the medium was withdrawn, and two extractions were performed by addition of 65% ethanol (0.25 ml). The two ethanolic extracts were pooled and evaporated until dryness, using a Speed-vac system. cGMP was measured after acetylation by scintillation proximity immunoassay (AMERSHAM). The EC50 values are expressed as the dose-giving half of the stimulation at saturating concentrations.

[2] = test system: conscious spontaneously hypertensive rats (SHRs); assay: Hypotensive effects in conscious spontaneously hypertensive rats; format: in vivo, rat; settings: orally 5 mg/kg in 5% DMF and 95% olive oil; AUC from 0 to 5 hours of the fall in blood pressure
Method: The hypotensive effects of compounds according to the invention as identified in Table 2 were studied in conscious spontaneously hypertensive rats (SHRs). The compounds were administered orally at a dose of 5 mg/kg in a mixture of 5% DMF and 95% olive oil. Blood pressure was measured from a catheter inserted in the carotid artery and recorded for five hours after administration. The results are expressed as Area Under the Curve (AUC) from 0 to 5 hours, mm Hg.hours of the fall in blood pressure over time.

Compound | IC50 (human recombinant PDE5) | EC50 [1] | melting point | SHR AUC PO [2]
O=C(/C=C/c1cccnc1)N1CCc2c([nH]c3ccccc23)C1c1ccc2c(c1)OCO2 (stereo not drawn) [Example 1, (E)-1-[1-(3,4-Methylenedioxyphenyl)-2,3,4,9-tetrahydro-β-carbolin-2-yl]-3-(pyridin-3-yl)-propene-1-one] | 0.058 µM | 0.5 µM | 240 °C | 61 mm Hg.h
O=C(/C=C/c1ccccn1)N1CCc2c([nH]c3ccccc23)C1c1ccc2c(c1)OCO2 (stereo not drawn) [Example 2, (E)-1-[1-(3,4-Methylenedioxyphenyl)-2,3,4,9-tetrahydro-β-carbolin-2-yl]-3-(pyridin-2-yl)-propene-1-one] | 0.076 µM | – | 135 to 141 °C | –
O=C(/C=C/c1ccccn1)N1CCc2c([nH]c3ccccc23)C1c1ccccc1 (stereo not drawn) [Example 3, (E)-1-[1-phenyl-2,3,4,9-tetrahydro-β-carbolin-2-yl]-3-(pyridin-2-yl)-propene-1-one] | 0.74 µM | – | 130 to 135 °C | –
O=C(/C=C/c1ccncc1)N1CCc2c([nH]c3ccccc23)C1c1ccc2c(c1)OCO2 (centres unmarked) [Example 4] | 0.046 µM | 0.5 µM | 224 to 225 °C | –
O=C(/C=C/c1cccnc1)N1CCc2c([nH]c3ccccc23)C1c1ccc2c(c1)CCO2 (stereo not drawn) [Example 5, (E)-1-[1-(2,3-Dihydrobenzofuran-5-yl)-2,3,4,9-tetrahydro-β-carbolin-2-yl]-3-(pyridin-3-yl)-propene-1-one] | 0.014 µM | < 1 µM | 221 to 222 °C | 12 mm Hg.h
CN(C)CCOc1ccc(/C=C/C(=O)N2CCc3c([nH]c4ccccc34)[C@H]2c2ccc3c(c2)CCO3)cn1 [Example 6, (E)-1R-1-[1-(2,3-Dihydrobenzofuran-5-yl)-2,3,4,9-tetrahydro-β-carbolin-2-yl]-3-[6-(2-dimethylaminoethoxy)-pyridin-3-yl]-propene-1-one] | 0.01 µM | < 1 µM | 155 °C | 95 mm Hg.h
CN(C)c1ccc(/C=C/C(=O)N2CCc3c([nH]c4ccccc34)[C@H]2c2ccc3c(c2)CCO3)cn1 [Example 7, (E)-(R)-1-[1-(2,3-Dihydrobenzofuran-5-yl)-2,3,4,9-tetrahydro-β-carbolin-2-yl]-3-(6-dimethylamino-pyridin-3-yl)-propene-1-one] | 0.006 µM | < 1 µM | 171 °C | 156 mm Hg.h
CNc1ccc(/C=C/C(=O)N2CCc3c([nH]c4ccccc34)[C@H]2c2ccc3c(c2)CCO3)cn1 [Example 8, (E)-(R)-1-[1-(2,3-Dihydrobenzofuran-5-yl)-2,3,4,9-tetrahydro-β-carbolin-2-yl]-3-(6-methylaminopyridin-3-yl)-propene-1-one] | 0.007 µM | < 1 µM | 171 °C | 50 mm Hg.h
CN1CCN(c2ccc(/C=C/C(=O)N3CCc4c([nH]c5ccccc45)[C@H]3c3ccc4c(c3)CCO4)cn2)CC1 [Example 9, (E)-(R)-1-[1-(2,3-Dihydrobenzofuran-5-yl)-2,3,4,9-tetrahydro-β-carbolin-2-yl]-3-[6-(4-methylpiperazin-1-yl)-pyridin-3-yl]-propene-1-one] | 0.025 µM | 1 µM | > 260 °C | 63 mm Hg.h
O=C(/C=C/c1ccc(N2CCCC2)nc1)N1CCc2c([nH]c3ccccc23)[C@H]1c1ccc2c(c1)CCO2 [Example 10, (E)-(R)-1-[1-(2,3-Dihydrobenzofuran-5-yl)-2,3,4,9-tetrahydro-β-carbolin-2-yl]-3-(6-pyrrolidin-1-yl-pyridin-3-yl)-propene-1-one] | 0.009 µM | < 1 µM | 201 °C | –

Further lines, with some results ahead:

IC50 (human recombinant PDE5) | EC50 [1] | melting point | Compound | SHR AUC PO [2]
0.027 µM | < 1 µM | > 260 °C | COC(=O)c1ccc(/C=C/C(=O)N2CCc3c([nH]c4ccccc34)[C@H]2c2ccc3c(c2)CCO3)nc1 [Example 11, (E)-(R)-6-{3-[1-(2,3-Dihydrobenzofuran-5-yl)-2,3,4,9-tetrahydro-β-carbolin-2-yl]-3-oxo-propenyl}-nicotinic acid methyl ester] | –
0.003 µM | 5 µM | 183 °C | O=C(O)c1ccc(/C=C/C(=O)N2CCc3c([nH]c4ccccc34)[C@H]2c2ccc3c(c2)CCO3)nc1 [Example 12, (E)-(R)-6-{3-[1-(2,3-Dihydrobenzofuran-5-yl)-2,3,4,9-tetrahydro-β-carbolin-2-yl]-3-oxo-propenyl}-nicotinic acid] | –
0.03 µM | < 1 µM | 163 °C | CN(C)Cc1ccc(/C=C/C(=O)N2CCc3c([nH]c4ccccc34)[C@H]2c2ccc3c(c2)CCO3)cn1 [Example 13, (E)-(R)-1-[1-(2,3-Dihydrobenzofuran-5-yl)-2,3,4,9-tetrahydro-β-carbolin-2-yl]-3-(6-dimethylaminomethyl-pyridin-3-yl)-propene-1-one] | 57 mm Hg.h
0.005 µM | 1.5 µM | – | CN(C)Cc1ccc(/C=C/C(=O)N2CCc3c([nH]c4ccccc34)[C@H]2c2ccc3c(c2)CCO3)s1 [Example 14, (E)-1R-1-[1-(2,3-Dihydrobenzofuran-5-yl)-2,3,4,9-tetrahydro-β-carboline-2-yl]-3-(5-dimethylaminomethyl-thiophen-2-yl)-propene-1-one] | 107 mm Hg.h
0.04 µM | 1.5 µM | – | O=C(/C=C/c1ccc(CN2CCCC2)s1)N1CCc2c([nH]c3ccccc23)[C@H]1c1ccc2c(c1)CCO2 [Example 15, (E)-1R-1-[1-(2,3-Dihydrobenzofuran-5-yl)-2,3,4,9-tetrahydro-β-carboline-2-yl]-3-(5-pyrrolidin-1-ylmethyl-thiophen-2-yl)-propene-1-one] | 96 mm Hg.h
0.004 µM | 3.5 µM | – | CN1CCN(Cc2ccc(/C=C/C(=O)N3CCc4c([nH]c5ccccc45)[C@H]3c3ccc4c(c3)CCO4)s2)CC1 [Example 16, (E)-1R-1-[1-(2,3-Dihydrobenzofuran-5-yl)-2,3,4,9-tetrahydro-β-carboline-2-yl]-3-(4-methyl-piperazin-1-ylmethyl-thiophen-2-yl)-propene-1-one] | –
0.02 µM | < 1 µM | – | CN(C)Cc1ccc(/C=C/C(=O)N2CCc3c([nH]c4ccccc34)[C@H]2c2ccc3c(c2)CCO3)o1 [Example 17, (E)-1R-1-[1-(2,3-Dihydrobenzofuran-5-yl)-2,3,4,9-tetrahydro-β-carboline-2-yl]-3-(5-dimethylaminomethyl-furan-2-yl)-propene-1-one] | 40 mm Hg.h
0.04 µM | 4 µM | – | CN(C)Cc1occc1/C=C/C(=O)N1CCc2c([nH]c3ccccc23)[C@H]1c1ccc2c(c1)CCO2 [Example 19, (E)-1R-1-[1-(2,3-Dihydrobenzofuran-5-yl)-2,3,4,9-tetrahydro-β-carboline-2-yl]-3-(2-dimethylaminomethyl-furan-3-yl)-propene-1-one] | –
0.04 µM | < 1 µM | – | O=C(/C=C/c1cncnc1)N1CCc2c([nH]c3ccccc23)[C@H]1c1ccc2c(c1)CCO2 [Example 20, (E)-1R-1-[1-(2,3-Dihydrobenzofuran-5-yl)-2,3,4,9-tetrahydro-β-carboline-2-yl]-3-(pyrimidin-5-yl)-propene-1-one] | 48 mm Hg.h
0.007 µM | < 1 µM | – | Nc1ncc(/C=C/C(=O)N2CCc3c([nH]c4ccccc34)[C@H]2c2ccc3c(c2)CCO3)cn1 [Example 21, (E)-1R-1-[1-(2,3-Dihydrobenzofuran-5-yl)-2,3,4,9-tetrahydro-β-carboline-2-yl]-3-(2-amino-5-pyrimidin-5-yl)-propene-1-one] | 124 mm Hg.h
0.006 µM | < 1 µM | – | O=C(/C=C/c1cnc(N2CCCC2)nc1)N1CCc2c([nH]c3ccccc23)[C@H]1c1ccc2c(c1)CCO2 [Example 22] | 9 mm Hg.h
0.008 µM | < 1 µM | – | CN1CCN(c2ncc(/C=C/C(=O)N3CCc4c([nH]c5ccccc45)[C@H]3c3ccc4c(c3)CCO4)cn2)CC1 [Example 23] | 108 mm Hg.h
0.04 µM | < 1 µM | – | O=C(/C=C/c1ccc([N+](=O)[O-])s1)N1CCc2c([nH]c3ccccc23)[C@H]1c1ccc2c(c1)CCO2 [Example 26, (E)-1R-1-[1-(2,3-Dihydrobenzofuran-5-yl)-2,3,4,9-tetrahydro-β-carboline-2-yl]-3-(5-nitro-thiophen-2-yl)-propene-1-one] | –
